Laboratory results as given in publication PMC5427923, “A novel CCR2 antagonist inhibits atherogenesis in apoE deficient mice by achieving high receptor occupancy” (Scientific Reports, 2017).
“Also recorded” adds a separate entry of the source. Read-outs that look alike come from different tables or passages of the source.

Tests used:
[1] = tested on: circulating CCR2+ monocytes; assay: Circulating blood cells (flow cytometry, hematology analyzer) in 15a treated apoE−/− mice; assay type: in vivo, mouse
Description: To determine the effect of the CCR2 antagonist on atherosclerotic lesion development, mice were fed a Western type diet, containing 0.25% cholesterol and 15% cocoabutter (SDS, Sussex, UK) throughout the experiment starting two week before surgery. Carotid artery plaque formation was induced by perivascular collar placement as described previously[46] and from the time of surgery, the mice received daily intraperitoneal injections containing 15a (5 mg/kg/day) or vehicle control (n = 9–10 per group). During the experiment, total body weight and weight gain were measured. Serum total cholesterol levels were determined using an enzymatic colorimetric assay according to manufacturer’s protocol (Roche Diagnostics). Precipath (standardized serum; Boehringer Mannheim, Germany) was used as an internal standard. Plasma cytokine levels were measured by ELISA according to manufacturer’s protocol (BD Biosciences). Blood was collected weekly via tail cut. Total cell count and cellular differentiation patterns in blood were analyzed using an automated XT-2000iV veterinary hematology analyzer (Sysmex Europe GMBH, Norderstedt, Germany). After erythrocyte lysis, blood leukocyte suspensions were stained for surface markers, after which their expression was determined by FACS analysis (FACS Canto, BD Biosciences). After 4 weeks of lesion development, the animals were anaesthetized and blood was collected. After in situ perfusion through the left cardiac chamber, the carotid arteries and hearts were harvested.

murine CCR2 (mCCR2) = target: T1, murine CCR2 (mCCR2) (Mus musculus, UniProt P51683); assay: [3H]INCB3344 association, dissociation and competition association (kinetic) assays on CHO-mCCR2 membranes; assay type: binding
T1 construct: expressed in transfected cells; host or cells: CHO cells, transient transfection (PEI) with pcDNA3.1+ plasmid; membrane preparation
T1 sequence (P51683 whole entry): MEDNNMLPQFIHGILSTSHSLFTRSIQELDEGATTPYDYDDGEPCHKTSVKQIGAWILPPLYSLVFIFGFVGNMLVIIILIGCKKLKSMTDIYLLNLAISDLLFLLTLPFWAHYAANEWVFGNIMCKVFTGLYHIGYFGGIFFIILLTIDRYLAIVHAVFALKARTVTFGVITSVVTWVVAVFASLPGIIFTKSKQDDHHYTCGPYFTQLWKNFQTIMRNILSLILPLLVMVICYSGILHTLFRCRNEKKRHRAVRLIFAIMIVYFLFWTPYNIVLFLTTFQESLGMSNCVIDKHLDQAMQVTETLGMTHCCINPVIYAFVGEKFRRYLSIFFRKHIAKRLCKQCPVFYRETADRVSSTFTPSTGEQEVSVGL
Description: Radioligand binding assays were performed in a 100 µL reaction volume containing 50 mM Tris-HCl buffer (pH 7.4), 5 mM MgCl2, 0.1% 3-[(3-cholamidopropyl)-dimethylammonio]-1-propanesulfonic acid (CHAPS), 5 nM [^3H]INCB3344 and 50 to 60 µg of membrane protein at 25 °C. Non-specific binding was determined with 10 μM of the cold ligand INCB3344. Displacement assays were carried out using 9 concentrations of competing ligand, ranging from 0.1 nM to 100 μM, for 120 min of incubation. The kinetic parameters of 15a were also determined at 25 °C using a competition association assay as previously described, [27]. For association and competition association experiments, CHO-mCCR2 membranes were added to the reaction volume at different time points, in the absence or presence of 30 nM of competing ligand. For dissociation experiments, CHO-mCCR2 membranes were first incubated with 5 nM [^3H]INCB3344 for 60 min. Dissociation was initiated by addition of 10 µM of INCB3344 at different time points. For all experiments, incubation was terminated by dilution with ice-cold 50 mM Tris-HCl buffer supplemented with 5 mM MgCl2 and 0.05% CHAPS. Separation of bound from free radioligand was performed by rapid filtration over a 96-well GF/B filter plate using a Perkin Elmer Filtermate-harvester (Perkin Elmer, Groningen, the Netherlands) in the case of displacement assays; or over GF/B filters using a Brandel harvester 24 (Brandel, Gaithersburg, MD, USA) for kinetic assays. Filter-bound radioactivity was determined by scintillation spectrometry after addition of Microscint scintillation cocktail (Perkin-Elmer, Groningen, the Netherlands). The P-E 2450 Microbeta2 plate counter (Perkin Elmer, Groningen, The Netherlands) was used for displacement assays, and the TRI Carb 2900 TR counter (Perkin Elmer, Groningen, The Netherlands) for kinetic assays.
All radioligand binding assays were analyzed using Prism 6.0 (GraphPad software, San Diego, CA, USA). All data shown represent means ± SEM of at least three independent experiments performed in duplicate. Ki values were calculated from IC50 values obtained by non-linear regression analysis of the displacement assays and by using the Cheng-Prusoff equation[47]. Dissociation rate constants k off were determined by fitting the dissociation data using an exponential decay model. Association rate constants k on were obtained by converting the apparent association rate constants k obs according to the equation k on = (k obs − k off)/[L], in which L is the radioligand concentration used for the experiments, k obs is the constant rate determined using exponential association analysis and k off represents the mean k off value obtained independently in the dissociation experiments. The kinetic profile of compound 15a was determined by calculation of its kinetic rate index (KRI) value. The KRI values were calculated according to the equation KRI = Bt1/Bt2, in which Bt represents the specific radioligand binding measured at t1 = 15 min and t2 = 210 min. In addition, the association and dissociation rates of 15a were obtained by nonlinear regression analysis of the competition association data using the equations described by Motulsky and Mahan[27]. […] In addition, the RT was calculated by obtaining the reciprocal of the k off. Data obtained from in vivo experiments are expressed as mean ± SEM. […] Non-Gaussian distributed data were analyzed using a two-tailed Mann-Whitney U test. […]

[2] = tested on: leucocyte migration towards the peritoneal cavity; assay: Pilot study: leucocyte migration towards the peritoneal cavity; assay type: in vivo, mouse; details: data not shown
Description: To measure plasma concentrations of 15a over time, Western type diet fed mice were injected with 5 mg/kg 15a, after which blood samples were taken at fixed time points (1, 2, 6 and 24 hours after injection). Blood samples were processed as described below under “Measurement of 15a plasma levels”. The final dose of 5 mg/kg/day was based on a pilot study in which two different doses (1.5 and 5 mg/kg/day) were tested using leucocyte migration towards the peritoneal cavity as a read-out. […] In addition, the dose of 5 mg/kg was also based on a previous study with TAK-779[38], in which a dose of 5 mg/kg was used.

[3] = 4 weeks of treatment, 18 h after last injection

## CC(C)[C@]1(C(=O)N2CCc3ccc(C(F)(F)F)cc3C2)CC[C@@H](N[C@@H]2CCc3cc(Br)ccc32)C1 [15a, ((1S,3R)-3-(((R)-5-bromo-2,3-dihydro-1H-inden-1-yl)amino)-1-isopropylcyclopentyl)(7-(trifluoromethyl)-3,4-dihydroisoquinolin-2(1H)-yl)methanone]
[1]; 5 mg/kg/day i.p., 4 weeks, 18 hour after the last injection, controls 14.9 ± 3.2
  number of circulating CCR2+ monocytes: 4.5 ± 1.0 *10^3 cells/mL
[1]; 5 mg/kg/day i.p., two weeks of treatment, 2 hours after injection, controls 8.7 ± 1.2%
  percentage of circulating CCR2+ monocytes (CD11b+Ly6Glow cells): 1.8 ± 0.2%
[1]; [3]
  increase in the amount of CD11b+Ly6ClowCX3CR1+ monocytes: 1.5 fold
  ratio of patrolling CD11b+Ly6ClowCX3CR1+ versus inflammatory CD11b+Ly6ChighCCR2+ monocytes in blood: increased
[1]; at 18 hours after treatment
  reduction in circulating CCR2+ monocyte numbers: > 60%
[1]; at the time of sacrifice
  circulating total white blood cell (WBCs) count: No differences
  total lymphocyte numbers: No differences; also recorded: remained unaffected
  total neutrophil numbers: No differences; also recorded: remained unaffected
  total number of (circulating) monocytes: significantly reduced
[1]; data not shown
  bone marrow monocyte subpopulations: did not observe any effects
[1]; flow cytometry, 18 hour after the last injection, data not shown
  number of neutrophils, CD19+ B cells, CD4+ or CD8+ T cells in blood or spleen: did not affect
[1]; flow cytometry, data not shown
  splenic or circulating Tregs: nor did we detect any effects
[1]; treated and untreated mice
  percentage of circulating CCR5+ monocytes: did not observe any change
Murine CCR2 (mCCR2); mCCR2, 25 °C
  kon: 117000 M⁻¹ s⁻¹
Murine CCR2 (mCCR2); mCCR2, 25 °C, KRI = Bt1/Bt2, t1 = 15 min, t2 = 210 min
  KRI (kinetic rate index): 1.6
Murine CCR2 (mCCR2); mCCR2, 25 °C, read-out: K D (kinetic, k off/k on)
  Kd: 7.4 ± 1.5 nM
Murine CCR2 (mCCR2); mCCR2, 25 °C, read-out: k off (converted)
  koff: 0.00085 s⁻¹
Murine CCR2 (mCCR2); mCCR2, corresponding to 0.051 min^−1, read-out: k off (as set for the simulations) (converted)
  koff: 0.00085 s⁻¹
[2]; 1.5 mg/kg per day
  effective in inhibiting leucocyte migration: not effective
[2]; 5 mg/kg per day
  effective in inhibiting leucocyte migration: was
